In ChEMBL document CHEMBL1201862, “PubChem BioAssay data set” (2004):
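Results reflect a 48-hour exposure of cells in 96-well plates to compound at five concentrations. At the GI50, growth is halved.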 Activity calls are given as the source filed them. Cut-off read from the data, not from the text of the source: active = GI50 up to about 1.1 µM and inactive = higher.

How the values were obtained:
Assay in all cases: inhibition of tumour cell growth, NCI panel, 48 h
[1] = test system: M19-MEL
[2] = test system: MOLT-4
[3] = test system: UACC-257
[4] = test system: KM12
[5] = test system: M14
[6] = test system: HL-60
[7] = test system: TK-10
[8] = test system: OVCAR-5
[9] = test system: IGROV-1
[10] = test system: SR
[11] = test system: U-251
[12] = test system: DMS-273
[13] = test system: OVCAR-3
[14] = test system: DMS-114
[15] = test system: SNB-75
[16] = test system: XF498
[17] = test system: LOX IMVI
[18] = test system: SN12C
[19] = test system: SK-OV-3
[20] = test system: 786-0
[21] = test system: A549
[22] = test system: SK-MEL-28
[23] = test system: HCC 2998
[24] = test system: UO-31
[25] = test system: SF-539
[26] = test system: NCI-H460
[27] = test system: RPMI-8226
[28] = test system: HT-29
[29] = test system: SF-268
[30] = test system: HOP-62
[31] = test system: SK-MEL-5
[32] = test system: NCI-H23
[33] = test system: OVCAR-4
[34] = test system: ACHN
[35] = test system: UACC-62
[36] = test system: HCT-116
[37] = test system: EKVX
[38] = test system: COLO 205
[39] = test system: SNB-19
[40] = test system: SW-620
[41] = test system: KM-20L2
[42] = test system: CCRF-CEM
[43] = test system: OVCAR-8
[44] = test system: NCI-H226
[45] = test system: SF-295
[46] = test system: RXF 393
[47] = test system: HCT-15
[48] = test system: LXFL 529
[49] = test system: K562
[50] = test system: HOP-92
[51] = test system: SK-MEL-2
[52] = test system: NCI-H522
[53] = test system: A498
[54] = test system: Malme-3M
[55] = test system: DLD-1
[56] = test system: CAKI-1

Measured: GI50

Cc1cn(C2CC3C(COCN3O)O2)c(=O)[nH]c1=O (configuration not stated)
> 100 µM: [47]
inactive: [1] > 100 µM | [2] > 100 µM | [3] > 100 µM | [4] > 100 µM | [5] > 100 µM | [6] > 100 µM | [7] > 100 µM | [8] > 100 µM | [9] > 100 µM | [10] > 100 µM | [11] > 100 µM | [12] > 100 µM | [13] > 100 µM | [14] > 100 µM | [15] 97.3 µM | [16] > 100 µM | [17] > 100 µM | [18] > 100 µM | [19] > 100 µM | [20] > 100 µM | [21] > 100 µM | [22] > 100 µM | [23] > 100 µM | [24] > 100 µM | [25] > 100 µM | [26] > 100 µM | [27] > 100 µM | [28] > 100 µM | [29] > 100 µM | [30] > 100 µM | [31] > 100 µM | [32] > 100 µM | [33] > 100 µM | [34] > 100 µM | [35] > 100 µM | [36] > 100 µM | [37] > 100 µM | [38] > 100 µM | [39] > 100 µM | [40] > 100 µM | [41] > 100 µM | [42] > 100 µM | [43] > 100 µM | [44] > 100 µM | [45] > 100 µM | [46] > 100 µM | [48] > 100 µM | [49] > 100 µM

O=C1C2=C(c3ccccc31)C(c1cccc(Cl)c1)NC(S)=N2 (configuration not stated)
inactive: [50] > 100 µM | [1] > 100 µM | [2] 91.8 µM | [3] > 100 µM | [4] 45.9 µM | [5] > 100 µM | [6] > 100 µM | [7] > 100 µM | [8] > 100 µM | [9] > 100 µM | [51] > 100 µM | [11] > 100 µM | [12] 80.9 µM | [13] > 100 µM | [14] > 100 µM | [15] 31.9 µM | [52] > 100 µM | [16] > 100 µM | [18] > 100 µM | [19] > 100 µM | [20] > 100 µM | [21] > 100 µM | [22] > 100 µM | [23] > 100 µM | [24] 46.2 µM | [25] > 100 µM | [26] > 100 µM | [27] 88.5 µM | [28] > 100 µM | [29] > 100 µM | [30] > 100 µM | [31] 55.1 µM | [32] > 100 µM | [33] 76.7 µM | [34] 68.1 µM | [35] > 100 µM | [36] > 100 µM | [37] > 100 µM | [38] > 100 µM | [39] > 100 µM | [40] > 100 µM | [41] > 100 µM | [42] > 100 µM | [53] > 100 µM | [43] 96.4 µM | [44] 44.2 µM | [45] > 100 µM | [54] > 100 µM | [48] > 100 µM | [55] > 100 µM | [56] 75.2 µM | [49] > 100 µM
> 100 µM: [47]
